Earlier results in PMC11317963 (Neural Regeneration Research, 2024).

How the values were obtained:
[1] = ref Zhang et al., 2000
[2] = system: permanent middle cerebral artery occlusion model; details: compared with VEGF; ref Pignataro et al., 2015
[3] = ref Diana et al., 2008; Finetti et al., 2012

| thermal stability [3] | Substance | half-life in vivo [1] | vessel permeability [2] |
| --- | --- | --- | --- |
|  | VEGF | relatively short |  |
| relatively high thermal stability | KLTWQELYQLKYKGI [QK] |  | decrease vessel permeability compared with VEGF |
